# Entries after “also recorded” stand apart in the source; their conditions may differ.
# Columns and labels:
# HIF-1 = target: T1, HIF-1 (Homo sapiens, UniProt P27540+Q16665); assay: gel retardation assay, transcription factor binding; format: biochemical
# T1 construct: endogenous in cells; host or cells: nuclear extracts
# Protocol: Nuclear extracts were incubated with different aplidine concentrations and labelled oligonucleotides for 60 min. Using gel retardation assay the binding of HIF-1 or AP-1 has been monitored.
# Nuclear extracts obtained from cells treated with different aplidine concentrations were incubated with labelled oligonucleotides for 60 min. Using gel retardation assay the binding of HIF-1 has been monitored.
# advanced solid tumours = assay: Phase I, 24 h infusion weekly x3 q4wk: antitumour activity; format: in vivo, human
# Protocol: In this study 16 patients were treated. patients characteristics: median age 55 years, median PS 1, male/female 11/5, tumour types being as follows: Head and neck 5, kidney 2, colon 3, rectum 2, sarcoma 1 and melanoma 3, all pre-treated with chemotherapy (median 2 lines).
# Aplidine was administered as a 24 h infusion at the following dose levels (Dls): 133 (3 pts), 266 (3 pts), 532 (3 pts), 1000 (3 pts), 2000 (3 pts) and 3000 (1 pt) mcg/m^2/wk×3 every 28 days.
# To date, 25 pts (median age 58 yrs, median ECOG 1) with advanced, previously treated solid tumours or lymphoma have been treated in this phase I study. Using a schedule of APL 24 h weekly×3 followed by 1 wk rest, the following dose levels have been tested: 133 (n-3 pts), 266 (3), 532 (3), 1000 (3), 2000 (3), 4500 (3) and 3750 μg/m^2/wk (3). With 60 cycles (180 infusions) administered, all pts are evaluable for toxicity. The Maximum Tolerated Dose was 4500 μg/m^2/wk×3 with grade (G) 3 muscular toxicity (biopsy proven type II muscular atrophy). G4 CPK and G3 transaminitis the dose-limiting toxicities in 2 or 4 pts. […] All pts have been sampled for PK analysis by LC/MS/MS. […] As expected, neuromuscular toxicity is dose-limiting. The possible recommended dose of 3750 μg/m^2/wk×3 is being assessed.
# A phase I trial was performed using 24 hour infusion weekly×3 followed by 1 wk rest. 32 patients (median age 58 yrs, median ECOG 1) with advanced, previously treated solid tumours have been treated. They have received 64 courses (median/pt: 2 (1-6)) across 8 dose levels: 133 (3 pts), 266 (3 pts), 532 (3 pts), 1000 (3 pts), 2000 (3 pts), 3000 (3 pts), 4500 (4 pts) and 3750 mcg/m^2/wk (10 pts). 2 out of 3 evaluable patients had DLT at 4500 mcg/m^2/wk: grade (G) 4 reversible neuromuscular toxicity (biopsy prevent type II muscular atrophy) and G4 CK increase (1 pt), and transient G3 transaminitis (1 pt). Other toxicities included G 1-2 malaise (most patients treated at ≧3000 mcg/m^2/wk), muscle cramps, G 1-2 emesis (responsive to antiemetics) and injection site reaction (very common and concentration-dependent). All patients have been sampled for PK analysis by a LC/MS/MS method. Pharmacokinetics are linear and the profiles fit a 2 compartment open model. […] Maintained plasma levels >1 ng/ml (active in vitro) were obtained at doses ≧3000 mcg/m^2. […] Four additional patients had minor responses or stable disease for >4 months. […] The recommended dose for future trials, 3750 mcg/m^2/wk×3, administered through a central vein catheter, is feasible and associated with mild toxicity.
# B 16 melanoma = details: mice; cited from earlier work
# gastric tumours = details: 1.25 mg/kg; cited from earlier work
# T1 sequence (Q16665 whole entry): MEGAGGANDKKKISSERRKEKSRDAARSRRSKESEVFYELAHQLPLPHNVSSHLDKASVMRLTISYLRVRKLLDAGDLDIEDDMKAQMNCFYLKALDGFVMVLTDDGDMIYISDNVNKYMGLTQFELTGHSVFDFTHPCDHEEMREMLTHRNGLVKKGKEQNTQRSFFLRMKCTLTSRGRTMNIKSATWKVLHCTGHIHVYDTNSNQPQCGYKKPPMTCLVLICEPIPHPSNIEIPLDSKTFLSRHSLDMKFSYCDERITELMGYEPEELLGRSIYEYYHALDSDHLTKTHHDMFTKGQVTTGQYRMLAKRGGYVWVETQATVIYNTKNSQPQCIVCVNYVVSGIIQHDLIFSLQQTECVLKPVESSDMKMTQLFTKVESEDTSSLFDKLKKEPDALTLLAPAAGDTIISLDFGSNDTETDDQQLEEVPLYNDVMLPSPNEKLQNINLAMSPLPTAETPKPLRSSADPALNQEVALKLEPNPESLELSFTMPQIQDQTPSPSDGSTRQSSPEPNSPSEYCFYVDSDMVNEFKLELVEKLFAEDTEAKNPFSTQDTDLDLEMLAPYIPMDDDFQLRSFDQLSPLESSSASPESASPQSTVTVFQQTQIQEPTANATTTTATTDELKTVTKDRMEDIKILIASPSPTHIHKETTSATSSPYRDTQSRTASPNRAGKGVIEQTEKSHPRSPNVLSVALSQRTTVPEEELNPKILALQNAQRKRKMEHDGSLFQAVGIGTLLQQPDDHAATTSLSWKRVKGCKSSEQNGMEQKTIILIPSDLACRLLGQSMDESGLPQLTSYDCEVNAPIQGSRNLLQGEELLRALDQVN
# T1 sequence (P27540 whole entry): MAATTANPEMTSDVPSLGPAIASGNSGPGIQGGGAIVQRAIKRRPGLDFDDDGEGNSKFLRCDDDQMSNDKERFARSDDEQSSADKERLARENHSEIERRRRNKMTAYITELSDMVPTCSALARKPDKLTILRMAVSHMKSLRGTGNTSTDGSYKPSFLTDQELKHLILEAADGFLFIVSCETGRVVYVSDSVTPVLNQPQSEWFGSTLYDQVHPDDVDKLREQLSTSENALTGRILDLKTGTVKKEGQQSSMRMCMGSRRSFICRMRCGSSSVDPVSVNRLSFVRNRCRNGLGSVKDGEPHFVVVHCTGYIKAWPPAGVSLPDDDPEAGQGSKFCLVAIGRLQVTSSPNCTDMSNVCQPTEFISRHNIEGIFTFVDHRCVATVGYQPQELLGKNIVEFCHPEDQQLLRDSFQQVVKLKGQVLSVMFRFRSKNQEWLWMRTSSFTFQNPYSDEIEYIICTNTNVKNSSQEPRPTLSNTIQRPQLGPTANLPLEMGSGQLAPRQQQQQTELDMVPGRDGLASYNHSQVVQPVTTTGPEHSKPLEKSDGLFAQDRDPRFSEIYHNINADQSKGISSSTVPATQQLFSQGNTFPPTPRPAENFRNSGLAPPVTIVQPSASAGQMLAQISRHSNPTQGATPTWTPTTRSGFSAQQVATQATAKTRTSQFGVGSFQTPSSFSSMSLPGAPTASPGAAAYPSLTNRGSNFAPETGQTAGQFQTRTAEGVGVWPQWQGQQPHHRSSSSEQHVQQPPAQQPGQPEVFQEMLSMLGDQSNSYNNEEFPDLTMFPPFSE
substance,measurement,setting,value
aplidine,binding of HIF-1 to consensus DNA sequence,HIF-1; nuclear extracts from cells treated with aplidine,does not block the binding
same,binding of HIF-1 to consensus DNA sequence,"HIF-1; nuclear extracts incubated with aplidine, 60 min",does not block the binding; also recorded: did not change the ability
same,"clinical response, pre-treated advanced melanoma","advanced solid tumours; DL 532 mcg/m^2/w, 1 patient",clinical improvement
same,"response, Patient #034, thyroid medullary carcinoma",advanced solid tumours; decrease in CEA marker,Clinical improvement and SD at lung lymphangitis
same,duration of minor responses or stable disease,advanced solid tumours; four additional patients,> 4 months
same,"response, Patient #008, non measurable metastatic melanoma",advanced solid tumours; highly pre-treated,clinical improvement and tumour shrinkage
same,"tumour shrinkage, Patient #032, renal carcinoma",advanced solid tumours; in vivo,20%
same,"duration of clinical improvement, advanced melanoma resistant to DTIC/interferon",advanced solid tumours; one patient,> 30 weeks
same,activity against implanted tumour,B 16 melanoma,active
same,T/C,gastric tumours,14%
